Reference: patent publication US20260015350A1, “AZAQUINAZOLINE PAN-KRAS INHIBITORS” (Mirati Therapeutics, Inc., priority 2022, published 2026)

Key:
KRas^WT = molecular target: T1, KRas^WT (Homo sapiens, UniProt P01116); assay: KRas binding assay (TR-FRET tracer displacement), KRas WT; details: TR-FRET tracer displacement, KRas WT
T1 construct: Biotinylated KRas (corresponding to amino acids 1-169, produced at Accelegan Inc.); biotin (biotinylated); purchased Accelegan Inc

KRas^G12C = molecular target: T2, KRas^G12C (Homo sapiens, UniProt P01116, G12C); assay: KRas binding assay (TR-FRET tracer displacement), KRas G12C; details: TR-FRET tracer displacement, KRas G12C
T2 construct: Biotinylated KRas (corresponding to amino acids 1-169, produced at Accelegan Inc.); biotin (biotinylated); purchased Accelegan Inc
T2 sequence (P01116 1-169 isoform P01116-2 G12C): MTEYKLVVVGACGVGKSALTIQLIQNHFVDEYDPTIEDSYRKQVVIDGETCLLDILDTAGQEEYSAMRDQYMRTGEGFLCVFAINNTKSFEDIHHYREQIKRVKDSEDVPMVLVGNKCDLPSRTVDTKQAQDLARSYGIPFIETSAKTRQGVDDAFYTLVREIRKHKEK

KRas^G12D = molecular target: T3, KRas^G12D (Homo sapiens, UniProt P01116, G12D); assay: KRas binding assay (TR-FRET tracer displacement), KRas G12D
T3 construct: Biotinylated KRas (corresponding to amino acids 1-169, produced at Accelegan Inc.); biotin (biotinylated); purchased Accelegan Inc
T3 sequence (P01116 1-169 isoform P01116-2 G12D): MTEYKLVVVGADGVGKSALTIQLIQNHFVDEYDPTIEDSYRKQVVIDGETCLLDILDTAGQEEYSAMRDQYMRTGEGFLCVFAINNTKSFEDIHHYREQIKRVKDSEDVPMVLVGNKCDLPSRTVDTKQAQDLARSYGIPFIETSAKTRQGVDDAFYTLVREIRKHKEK

KRas^G12S = molecular target: T4, KRas^G12S (Homo sapiens, UniProt P01116, G12S); assay: KRas binding assay (TR-FRET tracer displacement), KRas G12S; details: TR-FRET tracer displacement, KRas G12S
T4 construct: Biotinylated KRas (corresponding to amino acids 1-169, produced at Accelegan Inc.); biotin (biotinylated); purchased Accelegan Inc
T4 sequence (P01116 1-169 isoform P01116-2 G12S): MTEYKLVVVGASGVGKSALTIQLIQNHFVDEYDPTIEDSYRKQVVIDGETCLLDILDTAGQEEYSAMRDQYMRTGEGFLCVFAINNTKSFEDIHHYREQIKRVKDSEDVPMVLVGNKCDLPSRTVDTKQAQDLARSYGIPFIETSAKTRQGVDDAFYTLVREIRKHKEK

KRas^G12V = molecular target: T5, KRas^G12V (Homo sapiens, UniProt P01116, G12V); assay: KRas binding assay (TR-FRET tracer displacement), KRas G12V
T5 construct: Biotinylated KRas (corresponding to amino acids 1-169, produced at Accelegan Inc.); biotin (biotinylated); purchased Accelegan Inc
T5 sequence (P01116 1-169 isoform P01116-2 G12V): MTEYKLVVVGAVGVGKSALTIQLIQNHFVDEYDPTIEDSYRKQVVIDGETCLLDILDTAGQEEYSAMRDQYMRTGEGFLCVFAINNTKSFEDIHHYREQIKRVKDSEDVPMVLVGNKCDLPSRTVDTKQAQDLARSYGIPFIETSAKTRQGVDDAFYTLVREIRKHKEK

[1] = tested on: KRas-mediated phosphorylation of ERK in MKN1 cells; assay: Inhibition of KRas-mediated phosphorylation of ERK (Cisbio HTRF pERK), MKN1 cells; type: cell-based; details: Homo sapiens, MKN-1
Procedure, shortened: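 Day 1 seeding: 6,000 cells per well, RPMI/10% FBS, left overnight at 37° C. with 5% CO2. Plates then stood covered for 4 h at room temperature prior to HTRF detection of pERK.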

[2] = tested on: KRas-mediated phosphorylation of ERK in AsPC-1 cells; assay: Inhibition of KRas-mediated phosphorylation of ERK (Cisbio HTRF pERK), AsPC-1 cells; type: cell-based; details: Homo sapiens, ASPC1, AsPC-1 cells; HTRF pERK
Procedure, shortened: (§1)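 HTRF readout of phospho-ERK in cell lysates after 3 hrs of compound exposure. Dosing: 10 uM top, 3-fold steps, 10 doses, final DMSO 0.8%. Min control: 0.2 uM Trametinib. Lysis ran 40 mins at 4° C, and antibody detection 2 hrs at room temperature.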

[3] = tested on: KRas-mediated phosphorylation of ERK in H727 cells; assay: Inhibition of KRas-mediated phosphorylation of ERK (Cisbio HTRF pERK), H727 cells; type: cell-based; details: Homo sapiens, NCI-H727, H727 cells; HTRF pERK
Procedure, shortened: as §1

[4] = tested on: KRas-mediated phosphorylation of ERK in A549 cells; assay: Inhibition of KRas-mediated phosphorylation of ERK (Cisbio HTRF pERK), A549 cells; type: cell-based; details: Homo sapiens, HTRF pERK
Procedure, shortened: (§2)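 Signal read by HTRF (d2/Cryptate antibody pair, 2 hr room-temperature incubation on lysate). Cells: 6,000 per well, 3 hr compound exposure. Titration: 10 uM highest, 3-fold, 10 points.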

[5] = tested on: KRas-mediated phosphorylation of ERK in H358 cells; assay: Inhibition of KRas-mediated phosphorylation of ERK (Cisbio HTRF pERK), H358 cells; type: cell-based; details: Homo sapiens, NCI-H358, HTRF pERK
Procedure, shortened: as §1

[6] = tested on: KRas-mediated phosphorylation of ERK in H460 cells; assay: Inhibition of KRas-mediated phosphorylation of ERK (Cisbio HTRF pERK), H460 cells; type: cell-based; details: Homo sapiens, NCI-H460, HTRF pERK
Procedure, shortened: as §1

[7] = tested on: KRas-mediated phosphorylation of ERK in HCT116 cells; assay: Inhibition of KRas-mediated phosphorylation of ERK (Cisbio HTRF pERK), HCT116 cells; type: cell-based; details: Homo sapiens, HCT-116, HTRF pERK
Procedure, shortened: as §2

T1 sequence (P01116 1-169 isoform P01116-2): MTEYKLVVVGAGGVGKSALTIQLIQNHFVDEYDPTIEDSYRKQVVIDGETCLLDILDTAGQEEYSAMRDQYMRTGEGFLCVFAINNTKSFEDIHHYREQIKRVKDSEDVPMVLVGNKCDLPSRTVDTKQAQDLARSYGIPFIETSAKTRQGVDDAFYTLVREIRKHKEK

Row | SMILES | IC50 (KRas^WT) [nM] | IC50 (KRas^G12C) [nM] | IC50 (KRas^G12D) [nM] | IC50 (KRas^G12S) [nM] | IC50 (KRas^G12V) [nM] | IC50 [1] [nM] | IC50 [2] [nM] | IC50 [3] [nM] | IC50 [4] [nM] | IC50 [5] [nM] | IC50 [6] [nM] | IC50 [7] [nM]
1 | C=C1CN2CCCC2(COc2nc(N3CC4C(=O)NC(=O)C4C3)c3cnc(-c4cc(O)cc5ccc(F)c(CC)c45)c(F)c3n2)C1 (centres unmarked) [Example 947, 5-(7-(8-ethyl-7-fluoro-3-hydroxynaphthalen-1-yl)-8-fluoro-2-((2-methylenetetrahydro-1H-pyrrolizin-7a(5H)-yl)methoxy)pyrido[4,3-d]pyrimidin-4-yl)tetrahydropyrrolo[3,4-c]pyrrole-1,3(2H,3aH)-dione] | < 2 | < 2 | < 2 | < 2 | < 2 | 4 | 157 | 352 | 119 | 29 | – | –
2 | C[C@@H]1C[C@@H]1c1c(Cl)cc(O)cc1-c1ncc2c(N3CCC[C@]4(C3)NC(=O)NC4=O)nc(OCC34CCCN3C/C(=C\F)C4)nc2c1F (stereo partly drawn) [Example 937, (5R)-7-(7-(3-chloro-5-hydroxy-2-((1S,2R)-2-methylcyclopropyl)phenyl)-8-fluoro-2-(((Z)-2-(fluoromethylene)tetrahydro-1H-pyrrolizin-7a(5H)-yl)methoxy)pyrido[4,3-d]pyrimidin-4-yl)-1,3,7-triazaspiro[4.5]decane-2,4-dione] | < 2 | < 2 | < 2 | < 2 | < 2 | 1 | 116 | 116 | 55 | 12 | 36 | 88
3 | CCc1c(F)ccc2cc(O)cc(-c3ncc4c(N5C[C@@H]6C[C@H](C5)[C@H](O)C6)nc(OC[C@@H]5CC[C@H]6COCCN65)nc4c3F)c12 [Example 945, (1R,5R,6R)-3-(7-(8-ethyl-7-fluoro-3-hydroxynaphthalen-1-yl)-8-fluoro-2-(((6S,8aS)-hexahydro-1H-pyrrolo[2,1-c][1,4]oxazin-6-yl)methoxy)pyrido[4,3-d]pyrimidin-4-yl)-3-azabicyclo[3.2.1]octan-6-ol] | 3 | 4 | 6 | < 2 | 3 | 0.2 | 79 | 29 | 46 | 12 | 29 | 40
4 | C=C1CN2CCCC2(COc2nc(N3CCCC4(CC(=O)N4)C3)c3cnc(-c4cc(O)cc5ccc(F)c(CC)c45)c(F)c3n2)C1 (centres unmarked) [Example 943, 6-(7-(8-ethyl-7-fluoro-3-hydroxynaphthalen-1-yl)-8-fluoro-2-((2-methylenetetrahydro-1H-pyrrolizin-7a(5H)-yl)methoxy)pyrido[4,3-d]pyrimidin-4-yl)-1,6-diazaspiro[3.5]nonan-2-one] | < 2 | < 2 | < 2 | < 2 | < 2 | 0.4 | 32 | 50 | 27 | 4 | – | –
5 | CCc1c(F)ccc2cc(O)cc(-c3ncc4c(N5CC6CCC(C5)S6)nc(OC[C@@]56CCCN5C[C@H](F)C6)nc4c3F)c12 [Example 922, 4-(4-(8-thia-3-azabicyclo[3.2.1]octan-3-yl)-8-fluoro-2-(((2R,7aS)-2-fluorotetrahydro-1H-pyrrolizin-7a(5H)-yl)methoxy)pyrido[4,3-d]pyrimidin-7-yl)-5-ethyl-6-fluoronaphthalen-2-ol] | 21 | 18 | 74 | 9 | 13 | – | 1380 | 576 | – | – | – | –
6 | C[C@@H]1C[C@@H]1c1c(Cl)cc(O)cc1-c1ncc2c(N3CCCn4nc(C(=O)N(C)C)cc4C3)nc(OC[C@@]34CCCN3C[C@H](F)C4)nc2c1F [Example 933, 5-(7-(3-chloro-5-hydroxy-2-((1S,2R)-2-methylcyclopropyl)phenyl)-8-fluoro-2-(((2R,7aS)-2-fluorotetrahydro-1H-pyrrolizin-7a(5H)-yl)methoxy)pyrido[4,3-d]pyrimidin-4-yl)-N,N-dimethyl-5,6,7,8-tetrahydro-4H-pyrazolo[1,5-a][1,4]diazepine-2-carboxamide] | 4 | < 2 | < 2 | < 2 | < 2 | 11 | 29 | 70 | 202 | 18 | 287 | 526
7 | C[C@@H]1C[C@@H]1c1c(Cl)cc(O)cc1-c1ncc2c(N3CCCn4nc(C(=O)N(C)C)cc4C3)nc(OCC34CCCN3C/C(=C\F)C4)nc2c1F (stereo partly drawn) [Example 936, 5-(7-(3-chloro-5-hydroxy-2-((1S,2R)-2-methylcyclopropyl)phenyl)-8-fluoro-2-(((Z)-2-(fluoromethylene)tetrahydro-1H-pyrrolizin-7a(5H)-yl)methoxy)pyrido[4,3-d]pyrimidin-4-yl)-N,N-dimethyl-5,6,7,8-tetrahydro-4H-pyrazolo[1,5-a][1,4]diazepine-2-carboxamide] | 3 | 2 | < 2 | < 2 | < 2 | 2 | 17 | 25 | 71 | 11 | 104 | 262
8 | C/C=C1/CN2CCCC2(COc2nc(N3C[C@@H]4C[C@H](C3)[C@H](O)C4)c3cnc(-c4cc(O)cc5ccc(F)c(CC)c45)c(F)c3n2)C1 (stereo partly drawn) [Example 939, (1R,5R,6R)-3-(7-(8-ethyl-7-fluoro-3-hydroxynaphthalen-1-yl)-2-(((E)-2-ethylidenetetrahydro-1H-pyrrolizin-7a(5H)-yl)methoxy)-8-fluoropyrido[4,3-d]pyrimidin-4-yl)-3-azabicyclo[3.2.1]octan-6-ol] | < 2 | < 2 | < 2 | < 2 | < 2 | 0.1 | 32 | 28 | 11 | 5 | 18 | 27
9 | CCc1c(F)ccc2cc(O)cc(-c3ncc4c(N5C[C@@H]6C[C@H](C5)[C@H](O)C6)nc(OCC56CCCN5C/C(=C/F)C6)nc4c3F)c12 (stereo partly drawn) [Example 930, (1R,5R,6R)-3-(7-(8-ethyl-7-fluoro-3-hydroxynaphthalen-1-yl)-8-fluoro-2-(((E)-2-(fluoromethylene)tetrahydro-1H-pyrrolizin-7a(5H)-yl)methoxy)pyrido[4,3-d]pyrimidin-4-yl)-3-azabicyclo[3.2.1]octan-6-ol] | < 2 | < 2 | < 2 | < 2 | < 2 | – | 13 | 4 | 3 | 1 | – | –
10 | C=C1CN2CCCC2(COc2nc(N3CCCC4(CC(O)C4)C3)c3cnc(-c4cc(O)cc5ccc(F)c(CC)c45)c(F)c3n2)C1 (centres unmarked) [Example 934, 6-(7-(8-ethyl-7-fluoro-3-hydroxynaphthalen-1-yl)-8-fluoro-2-((2-methylenetetrahydro-1H-pyrrolizin-7a(5H)-yl)methoxy)pyrido[4,3-d]pyrimidin-4-yl)-6-azaspiro[3.5]nonan-2-ol] | < 2 | < 2 | < 2 | < 2 | < 2 | 0.2 | 11 | 6 | 7 | 1 | – | –
11 | C#Cc1c(F)ccc2cc(O)cc(-c3ncc4c(N5CCCC6(CCO6)C5)nc(OC[C@@]56CCCN5C[C@H](F)C6)nc4c3F)c12 (stereo partly drawn) [Example 935, 5-ethynyl-6-fluoro-4-(8-fluoro-2-(((2R,7aS)-2-fluorotetrahydro-1H-pyrrolizin-7a(5H)-yl)methoxy)-4-(1-oxa-6-azaspiro[3.5]nonan-6-yl)pyrido[4,3-d]pyrimidin-7-yl)naphthalen-2-ol] | 7 | 7 | 4 | 5 | 4 | – | 70 | 73 | – | – | – | –
